{"source": "paper PMC4868641", "about": "(Chemical research in toxicology, 2016)", "key": {"human kidney microsomes [1]": {"test_system": "human kidney microsomes", "assay": "P450-mediated N-oxidation in human kidney microsomes", "format": "in vitro ADME", "conditions": "limit of detection 50 pmol/min/mg protein"}, "mice": {"test_system": "mice", "conditions": "cited from earlier work"}, "[2]": {"conditions": "pH 7.0; cited from earlier work"}, "calf thymus DNA": {"test_system": "calf thymus DNA", "assay": "DNA adduct formation", "format": "biochemical", "conditions": "0.5 μM, calf thymus DNA 0.4 mg/mL, pH 7.4, 30 min, 37 °C"}, "[3]": {"test_system": "human microsomes (liver, kidney, colon, rectum)", "format": "in vitro ADME", "conditions": "1 μM, pH 7.5"}, "UGT1A9 [4]": {"target": "T1, UGT1A9 (Homo sapiens, UniProt O60656)", "T1 sequence (O60656 26-530)": "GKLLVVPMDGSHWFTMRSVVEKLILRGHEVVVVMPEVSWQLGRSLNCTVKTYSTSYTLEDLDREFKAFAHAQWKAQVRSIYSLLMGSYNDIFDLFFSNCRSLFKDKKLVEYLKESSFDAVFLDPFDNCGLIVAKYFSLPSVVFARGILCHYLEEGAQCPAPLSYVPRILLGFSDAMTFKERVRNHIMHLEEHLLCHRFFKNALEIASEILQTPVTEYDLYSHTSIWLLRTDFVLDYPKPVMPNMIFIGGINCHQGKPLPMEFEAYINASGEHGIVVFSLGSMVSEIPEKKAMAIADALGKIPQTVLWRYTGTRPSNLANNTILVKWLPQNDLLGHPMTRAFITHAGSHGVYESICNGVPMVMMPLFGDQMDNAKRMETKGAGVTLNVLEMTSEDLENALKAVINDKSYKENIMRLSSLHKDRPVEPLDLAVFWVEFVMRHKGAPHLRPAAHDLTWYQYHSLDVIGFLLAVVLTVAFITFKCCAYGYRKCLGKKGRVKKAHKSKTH", "conditions": "cited from earlier work"}, "UGT2B10 [5]": {"test_system": "UGT2B10", "conditions": "cited from earlier work"}, "UGT1A1 [6]": {"test_system": "UGT1A1", "conditions": "cited from earlier work"}, "human kidney microsomes [7]": {"test_system": "human kidney microsomes", "assay": "Inhibition of HONH-AαC glucuronidation in human kidney microsomes", "format": "biochemical", "conditions": "niflumic acid 0.1-2.5 μM, HONH-AαC 1 μM"}, "[8]": {"test_system": "other UGT1A and UGT2B isoforms", "conditions": "cited from earlier work"}, "UGT1A1 [9]": {"test_system": "UGT1A1", "assay": "Inhibition of estradiol-3-O-Gluc formation in human liver microsomes", "format": "biochemical", "conditions": "niflumic acid 0.1-2.5 μM, estradiol 25 μM"}, "UGT2B10 [10]": {"test_system": "UGT2B10", "conditions": "cited from earlier work", "remark": "listed apart in the source"}, "human liver microsomes": {"test_system": "human liver microsomes", "assay": "Inhibition of HONH-AαC glucuronidation in human liver microsomes", "format": "biochemical", "conditions": "niflumic acid 0.1-2.5 μM, HONH-AαC 1 μM"}, "UGT1A9 [11]": {"target": "T1, UGT1A9", "assay": "Inhibition of propofol glucuronidation in human liver microsomes", "format": "biochemical", "conditions": "niflumic acid 0.1-2.5 μM, propofol 100 μM"}, "rodents": {"test_system": "rodents", "conditions": "cited from earlier work"}}, "data": [{"smiles": "Nc1ccc2c(n1)[nH]c1ccccc12", "note": "[AαC, 2-Amino-9H-pyrido[2,3-b]indole]", "values": [{"measurement": "rate of P450-mediated N-oxidation", "setting": "human kidney microsomes [1]", "value": "very low"}, {"measurement": "mutations and early biomarkers of neoplasia", "setting": "mice; colon of mice", "value": "induces lacI mutations and aberrant crypt foci"}, {"measurement": "tumor induction", "setting": "mice; mice", "value": "induces liver and blood vessel tumors"}]}, {"smiles": "O=C(O)[C@H]1O[C@@H](ONc2ccc3c(n2)[nH]c2ccccc23)[C@H](O)[C@@H](O)[C@@H]1O", "note": "[AαC-HN^2-O-Gluc, O-(β-D-glucosidurony1)-2-hydroxyamino-9H-pyrido[2,3-b]indole]", "values": [{"measurement": "half-life", "setting": "[2]", "value": "exceeds 6 h"}]}, {"smiles": "O=C(O)[C@H]1O[C@@H](N(O)c2ccc3c(n2)[nH]c2ccccc23)[C@H](O)[C@@H](O)[C@@H]1O", "note": "[AαC-HON^2-Gluc, N^2-(β-D-glucosidurony1)-2-hydroxyamino-9H-pyrido[2,3-b]indole]", "values": [{"measurement": "DNA adduct formation (dG-C8-AαC / dG-C8-PhIP)", "setting": "calf thymus DNA", "value": "considerably lower than HONH-AαC"}]}, {"smiles": "ONc1ccc2c(n1)[nH]c1ccccc12", "note": "[HONH-AαC, 2-hydroxyamino-9H-pyrido[2,3-b]indole]", "values": [{"measurement": "principal Gluc conjugate formed", "setting": "[3]", "value": "AαC-HN^2-O-Gluc"}, {"measurement": "predominant Gluc conjugate formed", "setting": "[3]; 20 min", "value": "AαC-HON^2-Gluc"}, {"measurement": "DNA adduct formation (dG-C8-AαC / dG-C8-PhIP)", "setting": "calf thymus DNA", "value": "comparable levels"}, {"measurement": "Km", "setting": "UGT1A9 [4]", "value": 6.3, "unit": "µM"}]}, {"smiles": "Cn1c(NO)nc2ncc(-c3ccccc3)cc21", "note": "[HONH-PhIP, 2-hydroxyamino-1-methyl-6-phenylimidazo[4,5-b]pyridine]", "values": [{"measurement": "DNA adduct formation (dG-C8-AαC / dG-C8-PhIP)", "setting": "calf thymus DNA", "value": "comparable levels"}, {"measurement": "Km", "setting": "UGT2B10 [5]", "value": 58, "unit": "µM"}, {"measurement": "Km", "setting": "UGT1A1 [6]", "value": 19, "unit": "µM"}, {"measurement": "Km", "setting": "UGT1A9 [4]", "value": 36, "unit": "µM"}]}, {"smiles": "O=C(O)c1cccnc1Nc1cccc(C(F)(F)F)c1", "note": "[Niflumic acid, niflumic acid]", "values": [{"measurement": "effect on AαC-HN^2-O-Gluc formation", "setting": "human kidney microsomes [7]", "value": "greatly decreased"}, {"measurement": "effect on AαC-HON^2-Gluc formation", "setting": "human kidney microsomes [7]", "value": "greatly decreased"}, {"measurement": "effect on activities of other UGT1A and UGT2B isoforms", "setting": "[8]", "value": "little effect"}, {"measurement": "effect on formation of estradiol-3-O-Gluc (UGT1A1)", "setting": "UGT1A1 [9]", "value": "unaffected"}, {"measurement": "effect on UGT2B10 activity", "setting": "UGT2B10 [10]", "value": "does not alter"}, {"measurement": "effect on AαC-HN^2-O-Gluc formation", "setting": "human liver microsomes", "value": "concentration-dependent inhibition"}, {"measurement": "effect on AαC-HON^2-Gluc formation", "setting": "human liver microsomes", "value": "unchanged"}, {"measurement": "inhibition of glucuronidation of propofol (UGT1A9 substrate)", "setting": "UGT1A9 [11]", "value": "effective in inhibiting"}]}, {"smiles": "Cn1c(N)nc2ncc(-c3ccccc3)cc21", "note": "[PhIP, 2-amino-1-methyl-6-phenylimidazo[4,5-b]pyridine]", "values": [{"measurement": "cancer induction", "setting": "rodents", "value": "induces lymphoma, pancreatic, colorectal, and prostate cancers"}, {"measurement": "rate of P450-mediated N-oxidation", "setting": "human kidney microsomes [1]", "value": "very low"}]}, {"smiles": "Cn1c(NO[C@@H]2O[C@H](C(=O)O)[C@@H](O)[C@H](O)[C@H]2O)nc2ncc(-c3ccccc3)cc21", "note": "[PhIP-HN^2-O-Gluc, O-(β-D-glucosidurony1)-2-hydroxyamino-1-methyl-6-phenylimidazo[4,5-b]pyridine]", "values": [{"measurement": "DNA adduct formation (dG-C8-AαC / dG-C8-PhIP)", "setting": "calf thymus DNA", "value": "higher amounts of dG-C8-PhIP than HONH-PhIP"}]}, {"smiles": "Cn1c(N(O)[C@@H]2O[C@H](C(=O)O)[C@@H](O)[C@H](O)[C@H]2O)nc2ncc(-c3ccccc3)cc21", "note": "[PhIP-HON^2-Gluc, N^2-(β-D-glucosidurony1)-2-hydroxyamino-1-methyl-6-phenylimidazo[4,5-b]pyridine]", "values": [{"measurement": "DNA adduct formation (dG-C8-AαC / dG-C8-PhIP)", "setting": "calf thymus DNA", "value": "not detected"}]}]}
